Results: paper PMC4281356, “Uptake of the antisecretory factor peptide AF-16 in rat blood and cerebrospinal fluid and effects on elevated intracranial pressure” (Acta Neurochirurgica, 2014)
Where “and” joins values, the source holds several entries; their conditions need not be identical. Equal values may be shown once. Residues, ends and D or L forms follow the SMILES beside them.

Key:
[1] = Autoradiography of 14C-AF-16 distribution in the brain after intranasal administration; assay type: in vivo, rat; settings: control uninjured rats (n = 10), one intranasal dose, 30 min, 10 μm cryosections, X-ray film
Method: The distribution of ^14C-AF-16 in the brain after intranasal administration was investigated in a separate set of experiments. Control, uninjured rats (n = 10) received one intranasal dose of ^14C-AF-16. Thirty minutes later the rats were terminated and the brains were dissected out as described above. Frontal slices were cut, about 3 mm thick, immersed in 10 % sucrose in PBS overnight and then frozen in liquid nitrogen. Cryosections, cut at 10 μm, were prepared, air dried and exposed to Biomax AR autoradiography film (Kodak).

[2] = Side effects of AF-16 treatment in animals; assay type: in vivo; settings: experimental conditions in animals
[3] = AF-16 concentration in plasma after intranasal or i.v. administration (Bachem AF-16 Enzyme Immunoassay); assay type: in vivo, rat; settings: for Concentration of AF-16 in plasma: experimental rats (cryogenic brain injury); for Concentration of AF-16 in plasma / level at 0.5 h: sample 30 min after dosing, enzyme immunoassay, mean ± SEM; for level at 0.5 h: male, Sprague-Dawley, rat, plasma, control (uninjured) rats
Method: (§1) The test protocol was approved by the Regional Animal Experiments Ethical Committee and performed in accordance with guidelines for animal experiments (EC Directive 86/609/EEC). Male Sprague–Dawley rats, 180 ± 20 g body weight (Nova-SCB, Sollentuna, Sweden) were used. The rats were allowed a week for general adaptation in their cages before any form of experimental procedure was performed. All rats had free access to water and pelleted food during the whole experimental period. The temperature and air ventilation in the animal quarters were monitored according to standard procedures.
(§2) The operation procedure started with general anaesthesia via inhalation of Isoflurane (4 % induction, 1.5–2 % maintenance in air), after which the anaesthetised rat was positioned on the abdomen on a heating pad. The body temperature was monitored via a rectal thermo-coupled probe, and a heated blanket was placed underneath the rat in order to keep the temperature at 37 °C. The head was shaved and the skin washed with 70 % alcohol, followed by a subcutaneous injection of Marcaine. A 3– to 4-cm-long midline incision was made through the skin and fascia on the skull vault. The skull bone was freed from adherent connective tissue and a copper rod (144 g) with a tip diameter of 4 mm was immersed in liquid nitrogen and then applied to the right parietal bone for 90 s. […] The resulting lesion volume was calculated after termination of the experiments (see below). Uninjured rats were used as controls.
(§3) Rats were anaesthetised with Isoflurane 24 h after the cryogenic brain injury. The rats were given a single dose of 25 μl of AF-16 (2,000 μg/ml in phosphate buffered saline, PBS) or ^14C-AF-16 in each nostril and were then placed on their backs to make sure the AF-16 solution was absorbed appropriately. After 5–8 min they had recovered from anaesthesia, were fully awake and moved freely in the cage. Control, injured rats received the same volume of vehicle (PBS) only. ICP recordings for statistical calculations were collected for a 20-min-long period, starting after the animals were fully awake and the ICP values were stable and back to pre-anaesthesia levels.
(§4) The collection of blood and CSF was done in a separate set of experiments. ^14C-Labelled or unlabelled AF-16 was given by intranasal (see above) or i.v. administration via the penis vein (25 μl in a volume of 0.5 ml). For measurement of blood concentration of AF-16 the heart was punctured from the right thoracic cavity with an O.D. 1.22/60 mm injection needle. When 10–12 ml of blood had been collected, the thorax was opened and the rats were terminated by removing the heart. Immediately after termination, the rats were placed on the abdomen. For measurement of CSF levels of AF-16 the dura over cisterna magna was micro-surgically exposed by dissecting the neck muscles laterally, a procedure which uncovers the midline. The dura was subsequently punctured by a Neoflon i.v. cannula, outer diameter 0.6 mm, length 19 mm. After removing the needle from the cannula, 50–100 μl of CSF could be aspired without being contaminated with blood.
A Bachem AF-16 Enzyme Immunoassay kit (item S-1403) was used. Heparin-treated blood samples were mixed with an equal volume of Alsevers citrate solution (glucose, 0.1 M, sodium citrate 2-hydrate, 0.03 M, sodium chloride, 0.07 M). The blood samples were stored frozen for up to 1 month at −20 °C. The laboratory procedure followed Protocol III in the Bachem kit manual, but some critical points should be emphasised. The standard AF-16 was dissolved and diluted in normal blood plasma; the standards S1-S6 (0.2–200 ng/ml, corresponding to 0.114–114 nM) and normal plasma S0 were distributed into smaller aliquots (e.g. 200 μl) and frozen at −20 °C until use. The standard is not stable in buffered saline at these concentrations. […]

[4] = AF-16 concentration in CSF after intranasal or i.v. administration (estimated from radioactivity of 14C-AF-16); assay type: in vivo, rat; settings: for Concentration of AF-16 in CSF: estimated from 14C radioactivity, mean ± SEM
Method: as §1, §2, §3, §4
A Bachem AF-16 Enzyme Immunoassay kit (item S-1403) was used. Heparin-treated blood samples were mixed with an equal volume of Alsevers citrate solution (glucose, 0.1 M, sodium citrate 2-hydrate, 0.03 M, sodium chloride, 0.07 M). The blood samples were stored frozen for up to 1 month at −20 °C. The laboratory procedure followed Protocol III in the Bachem kit manual, but some critical points should be emphasised. […]

| Molecule | Distribution in the brain by autoradiography [1] | Side effects of treatment [2] | Concentration of AF-16 in plasma relative to CSF ([3]; control and injured rats, 30 min after intranasal or i.v. administration) | Concentration of AF-16 in plasma ([3]; i.v. via penis vein (25 μl in 0.5 ml), n = 7) | Concentration of AF-16 in plasma ([3]; intranasal (25 μl of 2,000 μg/ml in PBS in each nostril), n = 9) | level at 0.5 h ([3]; inhaled or intranasal, 100 ug per rat, intranasal (25 μl of 2,000 μg/ml in PBS in each nostril), n = 9) | level at 0.5 h ([3]; iv, 25 ul in a volume of 0.5 ml, i.v. via penis vein (25 μl in 0.5 ml), n = 7) | Concentration of AF-16 in plasma relative to CSF ([3]; normal rats, intranasal 0.3 μmol/kg in 25 μl, 15 and 30 min after deposition) | Change of plasma level between 15 and 30 min ([3]; normal rats, intranasal 0.3 μmol/kg, p < 0.03) | Concentration of AF-16 in CSF ([4]; control (uninjured) rats, i.v., CSF from cisterna magna 30 min after dosing, n = 6) | Concentration of AF-16 in CSF ([4]; control (uninjured) rats, intranasal, CSF 30 min after dosing, n = 9) | Concentration of AF-16 in CSF ([4]; experimental rats (cryogenic brain injury), i.v., CSF from cisterna magna 30 min after dosing, n = 7) | Concentration of AF-16 in CSF ([4]; experimental rats (cryogenic brain injury), intranasal, CSF 30 min after dosing, n = 9, p = 0.01 vs control) | Decrease of AF-16 in CSF between 15 and 30 min ([4]; normal rats, intranasal 0.3 μmol/kg) |
| --- | --- | --- | --- | --- | --- | --- | --- | --- | --- | --- | --- | --- | --- | --- |
| VCHSKTRSNPENNVGL [^14C-AF-16] | detected in the brain ventricles/choroid plexus |  |  |  |  |  |  |  |  |  |  |  |  |  |
| CC(C)C[C@H](NC(=O)CNC(=O)[C@@H](NC(=O)[C@H](CC(N)=O)NC(=O)[C@H](CC(N)=O)NC(=O)[C@H](CCC(=O)O)NC(=O)[C@@H]1CCCN1C(=O)[C@H](CC(N)=O)NC(=O)[C@H](CO)NC(=O)[C@H](CCCNC(=N)N)NC(=O)[C@@H](NC(=O)[C@H](CCCCN)NC(=O)[C@H](CO)NC(=O)[C@H](Cc1c[nH]cn1)NC(=O)[C@H](CS)NC(=O)[C@@H](N)C(C)C)[C@@H](C)O)C(C)C)C(=O)O [AF-16] (H-VCHSKTRSNPENNVGL-OH) |  | No side effects | about ten-times higher in plasma than in CSF | 14.5 ± 0.9 ng/mL | 8.7 ± 0.5 ng/mL | 7.8 ± 0.7 ng/mL | 14.7 ± 0.6 ng/mL | about ten-times higher in plasma than in CSF | decreased significantly | 1.1 ± 0 ng/mL | 0.6 ng/mL and 0.6 ± 0.1 ng/mL | 1.1 ± 0.1 ng/mL | 1.3 ng/mL and 1.3 ± 0.2 ng/mL | not statistically significant |
